ChEMBL document CHEMBL3638741, “Azabenzothiazole compounds, compositions and methods of use” (2014)

Molecular target: Non-receptor tyrosine-protein kinase TYK2 (Homo sapiens, UniProt P29597)
Assay: Reactions were incubated at 22° C. in 384-well polypropylene microtiter plates for 30 minutes and then stopped by addition of 25 μL of an EDTA containing solution (100 mM Hepes pH 7.2, 0.015% Brij-35, 150 mM EDTA), resulting in a final EDTA concentration of 50 mM. Ki values were then determined using the Morrison tight binding model. Morrison, J. F., Biochim. Biophys. Acta. 185:269-296 (1969); William, J. W. and Morrison, J. F., Meth. Enzymol., 63:437-467 (1979).

Chain of Non-receptor tyrosine-protein kinase TYK2 (P29597 whole entry): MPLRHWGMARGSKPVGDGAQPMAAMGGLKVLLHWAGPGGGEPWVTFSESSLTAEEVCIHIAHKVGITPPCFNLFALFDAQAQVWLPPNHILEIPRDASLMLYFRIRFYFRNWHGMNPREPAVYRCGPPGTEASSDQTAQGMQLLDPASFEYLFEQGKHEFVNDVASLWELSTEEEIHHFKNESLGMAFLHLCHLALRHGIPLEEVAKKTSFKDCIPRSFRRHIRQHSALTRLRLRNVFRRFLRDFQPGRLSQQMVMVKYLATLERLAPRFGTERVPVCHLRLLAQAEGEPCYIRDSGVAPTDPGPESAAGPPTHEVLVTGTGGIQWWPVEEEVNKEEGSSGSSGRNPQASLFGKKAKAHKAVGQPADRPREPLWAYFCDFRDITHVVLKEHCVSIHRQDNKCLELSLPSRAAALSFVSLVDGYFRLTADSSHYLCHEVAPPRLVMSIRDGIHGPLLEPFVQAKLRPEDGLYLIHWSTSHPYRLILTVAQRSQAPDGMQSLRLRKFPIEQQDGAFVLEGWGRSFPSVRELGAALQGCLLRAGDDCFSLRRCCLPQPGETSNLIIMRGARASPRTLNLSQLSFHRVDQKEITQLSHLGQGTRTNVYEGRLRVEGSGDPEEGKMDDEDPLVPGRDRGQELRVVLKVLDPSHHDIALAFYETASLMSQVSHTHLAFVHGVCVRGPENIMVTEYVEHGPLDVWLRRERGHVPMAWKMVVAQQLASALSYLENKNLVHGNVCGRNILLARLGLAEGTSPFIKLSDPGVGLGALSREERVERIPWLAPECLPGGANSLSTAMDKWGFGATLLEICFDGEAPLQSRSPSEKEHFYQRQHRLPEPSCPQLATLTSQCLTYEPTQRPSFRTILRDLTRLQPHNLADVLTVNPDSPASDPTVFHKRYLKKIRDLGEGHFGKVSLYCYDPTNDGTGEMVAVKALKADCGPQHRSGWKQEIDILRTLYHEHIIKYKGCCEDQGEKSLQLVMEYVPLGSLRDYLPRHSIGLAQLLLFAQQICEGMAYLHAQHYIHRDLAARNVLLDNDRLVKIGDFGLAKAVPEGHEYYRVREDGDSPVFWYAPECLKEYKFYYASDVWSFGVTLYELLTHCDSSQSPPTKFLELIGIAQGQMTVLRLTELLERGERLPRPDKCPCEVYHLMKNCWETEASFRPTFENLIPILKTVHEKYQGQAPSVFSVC

Ki [nM]	SMILES
87	OC1CN(c2cc(Nc3ncnc4nc(-c5c(Cl)cccc5Cl)sc34)ncn2)C1
1.4	COC(=O)Nc1nccc2nc(-c3c(Cl)cccc3Cl)sc12
